In patent US20230322776A1, “NEW ARYL-PYRIDO-PYRIMIDIN-ONE DERIVATIVES” (Hoffmann-La Roche Inc., priority 2020, published 2023):
pEC50, pIC50, pKd: −log10 of the molar value.

Tests used:
[1] = tested on: A375 cells (V600E mutated BRAF), ERK phospho-T202/Y204; test: HTRF assay for P-ERK determination in A375 cells (BRAF inhibition); format: cell-based; conditions: Homo sapiens, A-375, 1 hour drug incubation, DMSO = 100%, 10 μM Dabrafenib = 0%, top concentration 10 μM, read-out: P-ERK_A375: IC50
Excerpt: (§1) A375 is a cellular cancer model expressing V600E mutated BRAF and HCT116 a cellular cancer model expressing WT BRAF. First generation BRAF inhibitors such as e.g. dabrafenib induce a paradox effect on tumour cells in that they inhibit the growth of V600E mutated BRAF cells (such as e.g. A375), while they activate growth in WT BRAF cells (such as e.g. HCT 116). ERK 1,2 phosphorylation (terminal member of the phosphorylation cascade of the MAPK pathway) is hereafter reported as main readout for the activation status of the MAPK pathway. DMEM no-phenol red medium supplemented with L-glutamine was purchased from (Thermo Fisher Scientific). Fetal bovine serum (FBS) was purchased from VWR. Advanced ERK phospho-T202/Y204 kit—10,000 tests was purchased from Cisbio cat #64AERPEH. A375 (catalog #CRL-1619) and HCT116 (catalog #CCL-247) cells were originally obtained from American type Culture Collection (ATCC) and banked by the Roche repository. 384-Well microplates ultized were purchased from Greiner Bio-One, 384-well, (With Lid, HiBase, Low volume cat 784-080).
(§2) HTRF Assay for P-ERK Determination in A375 or HCT116 Cells
(§3) Prior to the assay, A375 and HCT116 cell lines are maintained in DMEM no-phenol red medium supplemented with 10% fetal bovine serum (FBS). Following compound treatment, P-ERK levels are determined by measuring FRET fluorescence signal induced by selective binding of two antibodies provided in the mentioned kit (Cisbio cat #64AERPEH) on ERK protein when phosphorylated at Thr202/Tyr204. Briefly, 8000 cells/well in 12 μl media/well are plated in the 384-well plate and left overnight in the incubator (at 37° C. with 5% CO2-humidified atmosphere), the following day the plate is treated in duplicate with test compounds, dabrafenib and PLX8394 (the latter two as controls) at the following final drug concentrations: 10 μM, 3 μM, 1 μM, 0.3 μM, 0.1 μM, 0.03 μM, 0.01 μM, 0.003 μM and 0.001 μM. All wells are subjected to DMSO normalization and drug incubation occurs for 1 hour. Then, 4 μl of a 4× lysis buffer supplied with the kit are added to the wells, the plate is then centrifuged for 30 second (3000 rpm) and incubated on a plate shaker for 1 h at rt.
(§4) At the end of the incubation 4 μl/well of advanced P-ERK antibody solution (prepared according to manufacturer's instruction) followed by 4 μl/well of criptate P-ERK antibody solution (prepared according to manufacturer's instruction) (Cisbio cat #64AERPEH) are added to test wells.
(§5) In order to allow proper data normalization, control wells non drug treated reported in the following table are always included in each plate (according to manufacturer's instruction):
(§6) The plate is then centrifuged at 3000 rpm for 30 seconds, sealed to prevent evaporation and incubated overnight in the dark at room temperature. The plate is then analyzed and fluorescence emission value collected through a Pherastast FSX (BMG Labtech) apparatus at […]. The obtained fluorescence values are processed according to the formula Ratio=[…]*10000 then the average of the ratio on the blank is subtracted to all values.
Data are normalized in the case of A375 cells (BRAF inhibition) considering the average of the ratio (blank subtracted) derived by DMSO only treated cells as 100% and by considering the average of the ratio (blank subtracted) derived by 10 μM Dabrafenib treated cells as 0%. Mean of the normalized points are fitted with sigmoidal curve and IC50 values are determined.

[2] = tested on: HCT116 cells (WT BRAF), ERK phospho-T202/Y204; test: HTRF assay for P-ERK determination in HCT116 cells (BRAF activation, paradox); format: cell-based; conditions: for pEC50: Homo sapiens, HCT-116, HCT116 cells, 1 hour drug incubation, activation relative to maximum Dabrafenib-mediated activation (100%), top concentration 10 μM, read-out: P-ERK_HCT-116: EC50—50PCT; for Fold Selectivity HCT-116 EC50-50/ A375: ratio of P-ERK HCT-116 EC50-50PCT to P-ERK A375 IC50
Excerpt: as §1, §2, §3, §4, §5, §6
Data are normalized in the case of HCT116 cells (BRAF activation) considering the average of the ratio (blank subtracted) derived by DMSO only treated cells as 0% and by considering the average of the ratio (blank subtracted) derived by Dabrafenib treated cells at the concentration which provides the highest signal as 100%. Individual points are fitted with either sigmoidal or bell shape curves, the percentage of activation compared to maximum Dabrafenib-mediated activation is determined.

[3] = molecular target: BRAF (Homo sapiens, UniProt P15056); test: KD BRAF (Table 1; no method described); format: binding
Chain of BRAF (P15056 whole entry): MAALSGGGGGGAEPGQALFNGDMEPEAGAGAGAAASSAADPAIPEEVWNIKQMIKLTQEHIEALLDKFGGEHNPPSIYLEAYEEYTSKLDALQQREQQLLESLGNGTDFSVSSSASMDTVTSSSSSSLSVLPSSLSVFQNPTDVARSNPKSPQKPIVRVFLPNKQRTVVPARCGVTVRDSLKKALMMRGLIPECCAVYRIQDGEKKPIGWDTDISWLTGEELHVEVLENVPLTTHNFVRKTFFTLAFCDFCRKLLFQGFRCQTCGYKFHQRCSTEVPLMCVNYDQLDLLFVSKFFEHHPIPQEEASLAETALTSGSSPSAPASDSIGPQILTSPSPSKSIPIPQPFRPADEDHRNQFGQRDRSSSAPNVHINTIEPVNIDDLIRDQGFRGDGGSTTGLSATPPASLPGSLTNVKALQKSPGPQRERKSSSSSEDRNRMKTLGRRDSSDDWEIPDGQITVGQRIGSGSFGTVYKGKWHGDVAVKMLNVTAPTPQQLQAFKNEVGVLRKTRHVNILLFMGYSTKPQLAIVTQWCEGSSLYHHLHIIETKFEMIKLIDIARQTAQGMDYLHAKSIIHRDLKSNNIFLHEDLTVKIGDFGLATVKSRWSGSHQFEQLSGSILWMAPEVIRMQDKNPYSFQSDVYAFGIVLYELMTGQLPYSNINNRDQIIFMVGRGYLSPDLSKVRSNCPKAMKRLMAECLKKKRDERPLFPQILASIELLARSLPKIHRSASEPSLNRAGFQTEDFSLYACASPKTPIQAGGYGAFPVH

[4] = molecular target: BRAF V660E (Homo sapiens, UniProt P15056, V600E); test: KD BRAF V660E (Table 1; no method described); format: binding
Chain of BRAF V660E (P15056 2-766 V600E): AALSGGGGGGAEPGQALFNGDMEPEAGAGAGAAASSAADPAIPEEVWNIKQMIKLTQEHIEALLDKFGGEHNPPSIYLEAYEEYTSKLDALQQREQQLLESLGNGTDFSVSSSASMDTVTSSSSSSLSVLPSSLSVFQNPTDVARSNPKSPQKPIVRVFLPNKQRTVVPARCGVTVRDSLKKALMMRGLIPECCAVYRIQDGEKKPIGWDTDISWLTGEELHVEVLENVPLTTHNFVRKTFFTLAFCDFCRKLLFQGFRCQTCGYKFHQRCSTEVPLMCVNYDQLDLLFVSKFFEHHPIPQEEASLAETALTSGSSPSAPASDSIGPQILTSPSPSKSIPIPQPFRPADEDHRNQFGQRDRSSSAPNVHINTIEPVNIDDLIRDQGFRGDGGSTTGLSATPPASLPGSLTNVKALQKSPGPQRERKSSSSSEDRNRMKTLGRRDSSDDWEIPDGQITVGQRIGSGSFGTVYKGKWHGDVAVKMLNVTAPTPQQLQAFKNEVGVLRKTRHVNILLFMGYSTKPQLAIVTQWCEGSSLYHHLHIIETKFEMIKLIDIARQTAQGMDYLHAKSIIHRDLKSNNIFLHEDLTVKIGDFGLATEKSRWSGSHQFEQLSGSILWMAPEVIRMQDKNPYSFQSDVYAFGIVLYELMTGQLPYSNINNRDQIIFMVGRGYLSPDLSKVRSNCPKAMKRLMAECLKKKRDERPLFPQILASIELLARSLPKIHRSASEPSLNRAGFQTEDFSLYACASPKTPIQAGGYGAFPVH

| SMILES | pIC50 [1] | pEC50 [2] | Fold Selectivity HCT-116 EC50-50/ A375 [2] | pKd [3] | pKd [4] |
| --- | --- | --- | --- | --- | --- |
| Cn1c(=O)c(-c2c(F)ccc(NS(=O)(=O)C3CCCC3)c2F)cc2cnc(NCCC3CCN(C(=O)OC(C)(C)C)CC3)nc21 [Example 13, tert-butyl 4-[2-[[6-[3-(cyclopentylsulfonylamino)-2,6-difluorophenyl]-8-methyl-7-oxopyrido[2,3-d]pyrimidin-2-yl]amino]ethyl]piperidine-1-carboxylate] | 6.56 | 5.02 | 34.7 | 6.46 | 6.36 |
| CC(=O)N1CCc2ccc(CCNc3ncc4cc(-c5c(F)ccc(NS(=O)(=O)N6CC[C@@H](F)C6)c5F)c(=O)n(C)c4n3)cc2C1 [Example 50, (3R)-N-[3-[2-[2-(2-acetyl-3,4-dihydro-1H-isoquinolin-7-yl)ethylamino]-8-methyl-7-oxopyrido[2,3-d]pyrimidin-6-yl]-2,4-difluorophenyl]-3-fluoropyrrolidine-1-sulfonamide] | 7.82 | 5.81 | 103.6 | 8.35 | 7.86 |
| CC(=O)N[C@H]1CC[C@H](Nc2ncc3cc(-c4c(F)ccc(NS(=O)(=O)N5CC[C@@H](F)C5)c4F)c(=O)n(C)c3n2)C1 [Example 24, N-[(1S,3S)-3-[[6-[2,6-difluoro-3-[[(3R)-3-fluoropyrrolidin-1-yl]sulfonylamino]phenyl]-8-methyl-7-oxopyrido[2,3-d]pyrimidin-2-yl]amino]cyclopentyl]acetamide] | 6.90 | 5.05 | 70.7 | 8.09 | 7.56 |
| CC(=O)N(C)Cc1cccc(CCNc2ncc3cc(-c4c(F)ccc(NS(=O)(=O)N5CC[C@@H](F)C5)c4F)c(=O)n(C)c3n2)c1 [Example 36, N-[[3-[2-[[6-[2,6-difluoro-3-[[(3R)-3-fluoropyrrolidin-1-yl]sulfonylamino]phenyl]-8-methyl-7-oxopyrido[2,3-d]pyrimidin-2-yl]amino]ethyl]phenyl]methyl]-N-methylacetamide] | 7.69 | 5.56 | 133.4 | 8.05 | 7.76 |
| CC(=O)N1CCC(O)(CCNc2ncc3cc(-c4c(F)ccc(NS(=O)(=O)N5CC[C@@H](F)C5)c4F)c(=O)n(C)c3n2)CC1 [Example 26, (3R)-N-[3-[2-[2-(1-acetyl-4-hydroxypiperidin-4-yl)ethylamino]-8-methyl-7-oxopyrido[2,3-d]pyrimidin-6-yl]-2,4-difluorophenyl]-3-fluoropyrrolidine-1-sulfonamide] | 6.57 | ≤ 5.00 | >36.9 | 8.03 | 7.56 |
| CC(=O)N1CCN(CCNc2ncc3cc(-c4c(F)ccc(NS(=O)(=O)N5CC[C@@H](F)C5)c4F)c(=O)n(C)c3n2)CC1 [Example 31, (3R)-N-[3-[2-[2-(4-acetylpiperazin-1-yl)ethylamino]-8-methyl-7-oxopyrido[2,3-d]pyrimidin-6-yl]-2,4-difluorophenyl]-3-fluoropyrrolidine-1-sulfonamide] | 7.10 | 5.19 | 80.2 | 7.68 | 7.28 |
| Cn1c(=O)c(-c2c(F)ccc(NS(=O)(=O)N3CC[C@@H](F)C3)c2F)cc2cnc(NCCc3ccc(CC(=O)OC(C)(C)C)cc3)nc21 [Example 46, tert-butyl 2-[4-[2-[[6-[2,6-difluoro-3-[[(3R)-3-fluoropyrrolidin-1-yl]sulfonylamino]phenyl]-8-methyl-7-oxopyrido[2,3-d]pyrimidin-2-yl]amino]ethyl]phenyl]acetate] | 7.19 | 5.45 | 55.0 | 7.01 | 6.65 |
| Cn1c(=O)c(-c2c(F)ccc(NS(=O)(=O)N3CC[C@@H](F)C3)c2F)cc2cnc(NCCN3CCN(C(=O)OC(C)(C)C)CC3)nc21 [Example 45, tert-butyl 4-[2-[[6-[2,6-difluoro-3-[[(3R)-3-fluoropyrrolidin-1-yl]sulfonylamino]phenyl]-8-methyl-7-oxopyrido[2,3-d]pyrimidin-2-yl]amino]ethyl]piperazine-1-carboxylate] | 7.57 | 5.83 | 55.1 | – | – |

More lines, now with the values ahead:

| pIC50 [1] | pEC50 [2] | Fold Selectivity HCT-116 EC50-50/ A375 [2] | pKd [3] | pKd [4] | SMILES |
| --- | --- | --- | --- | --- | --- |
| 7.41 | 5.35 | 116.0 | 8.04 | 7.63 | COC(=O)Cc1cccc(CCNc2ncc3cc(-c4c(F)ccc(NS(=O)(=O)N5CC[C@@H](F)C5)c4F)c(=O)n(C)c3n2)c1 [Example 47, methyl 2-[3-[2-[[6-[2,6-difluoro-3-[[(3R)-3-fluoropyrrolidin-1-yl]sulfonylamino]phenyl]-8-methyl-7-oxopyrido[2,3-d]pyrimidin-2-yl]amino]ethyl]phenyl]acetate] |
| 6.10 | ≤ 5.00 | 12.7 | 7.42 | 6.97 | Cl.Cn1c(=O)c(-c2c(F)ccc(NS(=O)(=O)N3CC[C@@H](F)C3)c2F)cc2cnc(NCCC3CCNCC3)nc21 [Example 14, (3R)—N-[2,4-difluoro-3-[8-methyl-7-oxo-2-(2-piperidin-4-ylethylamino)pyrido[2,3-d]pyrimidin-6-yl]phenyl]-3-fluoropyrrolidine-1-sulfonamide hydrochloride] |
| 7.26 | 5.74 | 33.4 | 8.02 | 7.38 | CC(=O)N(C)CCCNc1ncc2cc(-c3c(F)ccc(NS(=O)(=O)N4CC[C@@H](F)C4)c3F)c(=O)n(C)c2n1 [Example 27, N-[3-[[6-[2,6-difluoro-3-[[(3R)-3-fluoropyrrolidin-1-yl]sulfonylamino]phenyl]-8-methyl-7-oxopyrido[2,3-d]pyrimidin-2-yl]amino]propyl]-N-methylacetamide] |
| 6.08 | ≤ 5.00 | 12.1 | 5.85 | 5.55 | CC(C)(C)OC(=O)N1CCC(n2c(=O)c(-c3c(F)ccc(NS(=O)(=O)N4CC[C@@H](F)C4)c3F)cc3cnc(NCC4CC4)nc32)C1 (mixture of isomers) [Example 38, tert-Butyl (3RS)-3-[2-(cyclopropylmethylamino)-6-[2,6-difluoro-3-[[(3R)-3-fluoropyrrolidin-1-yl]sulfonylamino]phenyl]-7-oxopyrido[2,3-d]pyrimidin-8-yl]pyrrolidine-1-carboxylate] |
| 7.15 | ≤ 5.00 | >140.9 | 6.80 | 6.36 | CCN(C)S(=O)(=O)Nc1ccc(F)c(-c2cc3cnc(NCC4CC4)nc3n(C)c2=O)c1F [Example 11, 2-(cyclopropylmethylamino)-6-[3-[[ethyl(methyl)sulfamoyl]amino]-2,6-difluorophenyl]-8-methyl-7-oxopyrido[2,3-d]pyrimidine] |
